Columns and labels:
[1] = biological target: T1, ETB receptors (rat tracheal rings) (Rattus norvegicus, UniProt P21451); assay: Inhibition of sarafotoxin S6c-induced contraction on isolated rat tracheal rings; settings: contraction induced by sarafotoxin S6c, read-out: pA2 value Trachea (converted)
T1 construct: The thoracic aorta or trachea were excised, dissected and cut in 3-5 mm rings; from tissue; host or cells: tracheal rings of adult Wistar rats, epithelium removed
T1 sequence (P21451 27-442): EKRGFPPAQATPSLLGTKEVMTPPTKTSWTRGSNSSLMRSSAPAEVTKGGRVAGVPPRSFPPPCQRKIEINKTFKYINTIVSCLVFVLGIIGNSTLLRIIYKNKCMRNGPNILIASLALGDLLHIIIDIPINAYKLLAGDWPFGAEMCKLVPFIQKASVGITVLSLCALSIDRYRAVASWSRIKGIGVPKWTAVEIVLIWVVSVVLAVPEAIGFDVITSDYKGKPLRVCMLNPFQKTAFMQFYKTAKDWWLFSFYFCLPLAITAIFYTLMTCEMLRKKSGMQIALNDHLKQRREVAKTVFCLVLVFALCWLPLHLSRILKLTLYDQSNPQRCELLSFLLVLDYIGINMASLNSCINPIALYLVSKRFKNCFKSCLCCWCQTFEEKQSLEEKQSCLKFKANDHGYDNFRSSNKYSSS
Procedure: (§1) 2) Inhibition of Endothelin-Induced Contractions on Isolated Rat Aortic Rings (ETA Receptors) and Rat Tracheal Rings (ETB Receptors):
(§2) The functional inhibitory potency of the endothelin antagonists was assessed by their inhibition of the contraction induced by endothelin-1 on rat aortic rings (ETA receptors) and of the contraction induced by sarafotoxin S6c on rat tracheal rings (ETB receptors). Adult Wistar rats were anesthetized and exsanguinated. The thoracic aorta or trachea were excised, dissected and cut in 3-5 mm rings. The endothelium/epithelium was removed by gentle rubbing of the intimal surface. Each ring was suspended in a 10 ml isolated organ bath filled with Krebs-Henseleit solution (in mM; NaCl 115, KCl 4.7, MgSO4 1.2, KH2PO4 1.5, NaHCO3 25, CaCl2 2.5, glucose 10) kept at 37° C. and gassed with 95% O2 and 5% CO2. The rings were connected to force transducers and isometric tension was recorded (EMKA Technologies SA, Paris, France). The rings were stretched to a resting tension of 3 g (aorta) or 2 g (trachea). […] The functional inhibitory potency of the test compound was assessed by calculating the concentration ratio, i.e. the shift to the right of the EC50 induced by different concentrations of test compound. […]

[2] = biological target: T2, human recombinant ETA receptors (Homo sapiens, UniProt P25101); assay: Inhibition of [125I]ET-1 binding to membranes of CHO cells expressing human recombinant ETA receptors
T2 construct: expressed in transfected cells; host or cells: CHO cells (microsomal membranes)
T2 sequence (P25101 21-427): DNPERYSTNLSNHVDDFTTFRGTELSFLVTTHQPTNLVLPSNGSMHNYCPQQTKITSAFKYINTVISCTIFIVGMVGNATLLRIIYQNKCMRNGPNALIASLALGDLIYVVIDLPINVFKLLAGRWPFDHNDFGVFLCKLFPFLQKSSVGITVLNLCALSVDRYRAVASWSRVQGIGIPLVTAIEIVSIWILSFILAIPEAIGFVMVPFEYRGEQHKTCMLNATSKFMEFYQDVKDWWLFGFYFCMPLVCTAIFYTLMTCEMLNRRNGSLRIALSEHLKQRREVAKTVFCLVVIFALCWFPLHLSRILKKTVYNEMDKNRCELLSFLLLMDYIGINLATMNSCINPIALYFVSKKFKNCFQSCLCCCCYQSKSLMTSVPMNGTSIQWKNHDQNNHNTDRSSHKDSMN
Procedure: (§3) 1) Inhibition of Endothelin Binding to Membranes from CHO Cells Carrying Human ET Receptors:
(§4) For competition binding studies, membranes of CHO cells expressing human recombinant ETA or ETB receptors were used. Microsomal membranes from recombinant CHO cells were prepared and the binding assay made as previously described (Breu V., et al, FEBS Lett 1993; 334:210).
(§5) The assay was performed in 200 uL 50 mM Tris/HCl buffer, pH 7.4, including 25 mM MnCl2, 1 mM EDTA and 0.5% (w/v) BSA in polypropylene microtiter plates. […] After 2 h, the membranes were filtered on filterplates containing GF/C filters (Unifilterplates from Canberra Packard S.A. Zürich, Switzerland). To each well, 50 uL of scintillation cocktail was added (MicroScint 20, Canberra Packard S.A. Zürich, Switzerland) and the filter plates counted in a microplate counter (TopCount, Canberra Packard S.A. Zürich, Switzerland).
(§6) All the test compounds were dissolved, diluted and added in DMSO.

[3] = biological target: T3, human recombinant ETB receptors (Homo sapiens, UniProt P24530); assay: Inhibition of [125I]ET-1 binding to membranes of CHO cells expressing human recombinant ETB receptors
T3 construct: expressed in transfected cells; host or cells: CHO cells (microsomal membranes)
T3 sequence (P24530 27-442): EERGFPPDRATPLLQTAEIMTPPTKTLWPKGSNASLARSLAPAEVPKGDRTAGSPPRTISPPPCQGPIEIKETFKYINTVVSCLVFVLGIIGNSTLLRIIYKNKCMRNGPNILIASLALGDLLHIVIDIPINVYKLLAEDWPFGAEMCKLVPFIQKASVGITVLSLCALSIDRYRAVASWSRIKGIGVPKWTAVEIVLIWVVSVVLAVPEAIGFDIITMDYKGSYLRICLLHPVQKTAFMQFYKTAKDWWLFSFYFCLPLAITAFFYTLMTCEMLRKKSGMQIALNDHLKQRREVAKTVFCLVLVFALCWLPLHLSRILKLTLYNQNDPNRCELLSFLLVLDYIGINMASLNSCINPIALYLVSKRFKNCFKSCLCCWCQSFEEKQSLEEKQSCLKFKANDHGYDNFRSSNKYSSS
Procedure: as §3, §4, §5, §6

[4] = biological target: T4, ETA receptors (rat aortic rings) (Rattus norvegicus, UniProt P26684); assay: Inhibition of endothelin-1-induced contraction on isolated rat aortic rings; settings: read-out: pA2 value Aorta (converted)
T4 construct: The thoracic aorta or trachea were excised, dissected and cut in 3-5 mm rings; from tissue; host or cells: thoracic aorta rings of adult Wistar rats, endothelium removed
T4 sequence (P26684 21-426): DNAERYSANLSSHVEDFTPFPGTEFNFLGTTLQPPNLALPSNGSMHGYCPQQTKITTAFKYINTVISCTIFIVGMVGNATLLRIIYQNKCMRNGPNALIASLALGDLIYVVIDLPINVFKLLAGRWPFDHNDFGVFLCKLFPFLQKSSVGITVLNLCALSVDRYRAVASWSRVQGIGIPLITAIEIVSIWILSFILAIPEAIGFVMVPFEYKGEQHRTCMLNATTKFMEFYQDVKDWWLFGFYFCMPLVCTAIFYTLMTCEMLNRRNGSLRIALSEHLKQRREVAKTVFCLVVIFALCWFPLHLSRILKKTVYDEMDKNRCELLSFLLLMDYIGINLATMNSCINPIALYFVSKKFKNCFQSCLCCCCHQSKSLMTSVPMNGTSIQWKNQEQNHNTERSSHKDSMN
Procedure: as §1, §2

| Compound | Kb [1] [nM] | IC50 [2] [nM] | IC50 [3] [nM] | Kb [4] [nM] |
| --- | --- | --- | --- | --- |
| COCCNS(=O)(=O)Nc1ncnc(OCCOc2ncc(Br)cn2)c1Oc1cc(OC)ccc1Cl [Example 1, 2-methoxy-ethanesulfamic acid [6-[2-(5-bromo-pyrimidin-2-yloxy)-ethoxy]-5-(2-chloro-5-methoxy-phenoxy)-pyrimidin-4-yl]-amide] | 5130 | 0.28 | 174 | 126 |
| COCCNS(=O)(=O)Nc1ncnc(OCCOc2ncc(Br)cn2)c1-c1ccc(Br)cc1 [Example 2, 2-methoxy-ethanesulfamic acid {5-(4-bromophenyl)-6-[2-(5-bromopyrimidin-2-yloxy)-ethoxy]-pyrimidin-4-yl}-amide] | > 10000 | 0.22 | 222 | 3.31 |
| COCCNS(=O)(=O)Nc1ncnc(OCCOc2ncc(SC)cn2)c1-c1ccc(Br)cc1 [Example 3, 2-Methoxy-ethanesulfamic acid {5-(4-bromophenyl)-6-[2-(5-methylsulfanyl-pyrimidin-2-yloxy)-ethoxy]-pyrimidin-4-yl}-amide] |  | 0.2 | 120 |  |
| COCCNS(=O)(=O)Nc1ncnc(OCCOc2ncc(OC)cn2)c1-c1ccc(Br)cc1 [Example 4, 2-Methoxy-ethanesulfamic acid {5-(4-bromophenyl)-6-[2-(5-methoxypyrimidin-2-yloxy)-ethoxy]-pyrimidin-4-yl}-amide] |  | 1.27 | 560 |  |
